Measured values from ChEMBL document CHEMBL4699437, “New insights into ethionamide metabolism: influence of oxidized methionine on its degradation path” (RSC Med Chem, 2020).

Test: Acid dissociation constant, pKa of the compound

pKa: 11.9
Structure (SMILES): CCc1cc(C(N)=S)ccn1 [ETHIONAMIDE]
